From paper PMC7999182, “Interaction of Remdesivir with Clinically Relevant Hepatic Drug Uptake Transporters” (Pharmaceutics, 2021)

Columns and labels:
OATP1B1 [1] = target: T1, OATP1B1 (Homo sapiens, UniProt Q9Y6L6); assay: Inhibition of OATP1B1-mediated BSP uptake; assay type: cell-based
T1 construct: expressed in transfected cells
T1 sequence (Q9Y6L6 1-691): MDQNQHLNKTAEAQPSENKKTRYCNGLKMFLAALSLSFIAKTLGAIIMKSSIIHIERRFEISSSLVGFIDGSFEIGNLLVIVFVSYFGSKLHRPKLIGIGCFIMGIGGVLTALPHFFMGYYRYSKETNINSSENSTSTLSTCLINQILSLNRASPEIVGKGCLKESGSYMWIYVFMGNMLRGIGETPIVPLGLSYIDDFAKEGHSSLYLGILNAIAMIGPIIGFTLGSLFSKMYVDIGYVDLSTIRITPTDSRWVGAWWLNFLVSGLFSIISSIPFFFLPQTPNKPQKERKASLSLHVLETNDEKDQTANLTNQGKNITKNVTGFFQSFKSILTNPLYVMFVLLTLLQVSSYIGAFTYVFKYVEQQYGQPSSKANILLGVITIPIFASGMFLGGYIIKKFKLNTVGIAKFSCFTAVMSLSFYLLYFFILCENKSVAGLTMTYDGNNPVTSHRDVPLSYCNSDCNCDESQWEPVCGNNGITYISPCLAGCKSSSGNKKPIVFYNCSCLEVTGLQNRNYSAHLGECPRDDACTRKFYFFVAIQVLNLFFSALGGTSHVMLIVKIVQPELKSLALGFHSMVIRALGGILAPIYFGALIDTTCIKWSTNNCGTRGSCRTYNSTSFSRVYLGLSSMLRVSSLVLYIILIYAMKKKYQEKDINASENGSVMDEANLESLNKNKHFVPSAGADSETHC
Text: (§1) Generation, cultivation and characterization of human embryonic kidney (HEK) cells stably expressing OATP1B1 refseq (=OATP1B1*1a), OATP1B1*1b, OATP1B1*5 and OATP1B1*15 [18], OATP1B3 [19], OATP2B1 [13] and OCT1 [20] have been described previously. OATP1B1 cells were cultivated in minimal essential medium (Life Technologies, Paisley, UK) and OATP1B3, OATP2B1 and OCT1 cells were cultivated in Dulbecco’s modified Eagle medium (Sigma, Darmstadt, Germany). Cultivation media were supplemented with 10% fetal calf serum, 100 U/mL penicillin and 100 µg/mL streptomycin. Cells were grown at 37 °C and 5% CO2. Functionality of the cells was confirmed by measuring uptake of prototypic substrates (see Section 2.3 and supplementary material).
(§2) Prototypic substrate uptake was performed as described previously. For this, uptake solutions contained the respective substrate with tracer amounts of radiolabeled substrate. In case of inhibition studies, uptake solutions additionally contained different concentrations of remdesivir. […] Cells were then lysed with 0.2% sodium dodecyl sulfate and intracellular radioactivity was measured by liquid scintillation counting (Tricarb2800, PerkinElmer Life Sciences GmbH, Rodgau, Germany or Hidex 300SL TDCR liquid scintillation counter, Turku, Finland). […]

OATP2B1 = target: T2, OATP2B1 (Homo sapiens, UniProt O94956); assay: Inhibition of OATP2B1-mediated estrone sulfate uptake; assay type: cell-based
T2 construct: expressed in transfected cells
T2 sequence (O94956 1-709): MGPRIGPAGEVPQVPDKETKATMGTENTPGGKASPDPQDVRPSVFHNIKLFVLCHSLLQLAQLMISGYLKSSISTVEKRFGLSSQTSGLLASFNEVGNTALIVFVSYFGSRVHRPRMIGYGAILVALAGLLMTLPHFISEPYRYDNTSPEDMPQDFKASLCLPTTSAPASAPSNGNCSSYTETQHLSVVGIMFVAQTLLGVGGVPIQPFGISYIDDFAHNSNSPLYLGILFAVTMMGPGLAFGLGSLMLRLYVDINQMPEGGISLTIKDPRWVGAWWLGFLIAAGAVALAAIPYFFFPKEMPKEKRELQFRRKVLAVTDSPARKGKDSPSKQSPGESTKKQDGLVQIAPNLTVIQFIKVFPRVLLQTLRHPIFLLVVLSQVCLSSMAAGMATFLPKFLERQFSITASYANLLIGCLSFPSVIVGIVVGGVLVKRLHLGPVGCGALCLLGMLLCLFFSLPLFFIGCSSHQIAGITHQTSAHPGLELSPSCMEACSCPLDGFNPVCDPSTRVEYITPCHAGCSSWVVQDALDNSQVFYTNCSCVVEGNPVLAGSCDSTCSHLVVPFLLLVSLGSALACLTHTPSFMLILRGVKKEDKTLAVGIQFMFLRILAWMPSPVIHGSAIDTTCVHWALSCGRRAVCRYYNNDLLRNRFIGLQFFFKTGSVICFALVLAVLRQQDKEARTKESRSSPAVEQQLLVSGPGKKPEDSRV
Text: as §1, §2

OATP1B1 [2] = system: OATP1B1; set-up: method as in earlier work; conditions: prototypic substrate not stated; cited from earlier work

Structure (SMILES): CCC(CC)COC(=O)[C@H](C)N[P@](=O)(OC[C@H]1O[C@@](C#N)(c2ccc3c(N)ncnn23)[C@H](O)[C@@H]1O)Oc1ccccc1 [Remdesivir]
- Effect on prototypic substrate uptake (OATP1B1 [1]; 0.05 µM BSP, 10 min uptake, different remdesivir concentrations): significant concentration-dependent inhibitory effect
- Transporter inhibition at 10 µM (OATP1B1 [1]; 10 µM remdesivir, BSP as substrate): inhibition
- Effect on prototypic substrate uptake (OATP2B1; 1 µM estrone sulfate, 30 sec uptake, different remdesivir concentrations): significant concentration-dependent inhibitory effect
- Transporter inhibition at 10 µM (OATP2B1; 10 µM remdesivir, estrone sulfate as substrate): inhibition
- IC50 (OATP1B1 [2]): 2800 nM
